Measurements taken from ChEMBL document CHEMBL3351249, “Potent cholesteryl ester transfer protein inhibitors of reduced lipophilicity: 1,1'-spiro-substituted hexahydrofuroquinoline derivatives” (J Med Chem, 2014).

Tests used:
[1] = target: T1, Cholesteryl ester transfer protein (Homo sapiens, UniProt P11597); assay: Inhibition of human recombinant CETP by fluorescence transfer assay
T1 sequence (P11597 whole entry): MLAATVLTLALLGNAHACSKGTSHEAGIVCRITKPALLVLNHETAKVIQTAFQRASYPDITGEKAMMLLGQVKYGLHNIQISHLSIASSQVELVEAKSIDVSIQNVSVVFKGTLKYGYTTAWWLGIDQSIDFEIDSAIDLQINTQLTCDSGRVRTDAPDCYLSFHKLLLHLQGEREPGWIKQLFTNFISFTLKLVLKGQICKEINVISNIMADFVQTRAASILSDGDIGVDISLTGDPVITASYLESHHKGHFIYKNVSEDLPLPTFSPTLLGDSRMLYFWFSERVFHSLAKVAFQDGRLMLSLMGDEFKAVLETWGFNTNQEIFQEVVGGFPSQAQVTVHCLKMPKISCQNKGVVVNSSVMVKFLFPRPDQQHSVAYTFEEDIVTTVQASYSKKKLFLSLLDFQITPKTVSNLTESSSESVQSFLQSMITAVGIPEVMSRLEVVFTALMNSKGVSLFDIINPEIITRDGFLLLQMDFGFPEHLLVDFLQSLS

[2] = Terminal elimination half life in healthy human administered as single oral dose; type: ADME, organism-based; settings: in vivo, read-out: beta t1/2 (converted)

Compound	IC50 [1] [nM]	half-life [2] [min]
CC(C)c1nc2c(c3c1[C@H](c1ccc(C(F)(F)F)cc1)OC31CCOCC1)[C@H](O)CC(C)(C)C2	576	
Cc1cc(C)c2c(c1)[C@@H](N(Cc1cc(C(F)(F)F)cc(C(F)(F)F)c1)c1nnn(C)n1)CCCN2C[C@H]1CC[C@H](C(=O)O)CC1 [EVACETRAPIB]		2640
